Measured values from patent US20210147455A1 (SHAANXI SYNTHETIC PHARMACEUTICAL CO., LTD., priority 2018, published 2021).
Values joined by “and” are separate entries in the source; they are usually repeats but may differ in a detail not shown here. Equal entries are not always repeated.

Experiments:
[1] = Stability experiments under 40° C.±2° C. and 75% R.H±5% R.H (accelerated test); format: physicochemical; conditions: 40° C./75% R.H
[2] = Stability experiments under 25° C.±2° C. and 65% R.H±5% R.H; conditions: 25° C./65% R.H
Source text: • 1. […] The results are shown in detail in the following table.

[3] = Hygroscopicity study (Chinese Pharmacopoeia 2015, 9103); format: physicochemical; conditions: for Hygroscopic weight gain: 25° C.±1° C., saturated ammonium chloride solution, 24 hours; for Conclusion (hygroscopicity): after 24 hours
Method: Test method: • 1. A dried glass weighing bottle with stopper (having an outer diameter of 50 mm and a height of 15 mm) was placed in a thermostatic drier (a saturated ammonium chloride solution was placed on the lower part of the thermostatic drier) at an appropriate temperature of 25° C.±1° C. on the day earlier before the test, and the weight (m1) of weighing bottle was precisely weighed. • 2. An appropriate amount of test sample was taken and spread in the weighing bottle, and the thickness of the test sample was controlled to about 1 mm, and the weight (m2) was precisely weighed. • 3. The weighing bottle was opened and was placed, together with the bottle cap, under the above mentioned constant temperature and humidity condition for 24 hours. • 4. The weighing bottle was capped and precisely weighed to obtain the weight (m3).
Description of hygroscopicity characterization and delimitation of hygroscopicity weight gain: Deliquescence: enough moisture is absorbed to form a liquid. […] Slightly hygroscopic: hygroscopic weight gain is less than 2% but not less than 0.2%. Not or hardly hygroscopic: hygroscopic weight gain is less than 0.2%.

[4] = month 3, Phosphate Monopotassium Salt
[5] = month 6, Phosphate Monopotassium Salt
[6] = month 9, Phosphate Monopotassium Salt
[7] = month 12, Phosphate Monopotassium Salt
[8] = month 24, Phosphate Monopotassium Salt

Compound: Posaconazole Phosphate Monopotassium Salt [Comparative Example 3]
- Content ([1]; month 0): 99.87%
- Description ([1]; month 0): White
- Related substance ([1]; month 0): 0.13%
- Content ([1]; month 1): 99.75%
- Description ([1]; month 1): White
- Related substance ([1]; month 1): 0.25%
- Content ([1]; month 2): 99.64%
- Description ([1]; month 2): White
- Related substance ([1]; month 2): 0.36%
- Content ([1]; month 3): 99.51%
- Description ([1]; month 3): White
- Related substance ([1]; month 3): 0.49%
- Content ([1]; month 6): 99.38%
- Description ([1]; month 6): White
- Related substance ([1]; month 6): 0.62%
- Content ([2]; month 0): 99.87%
- Description ([2]; month 0): White
- Related substance ([2]; month 0): 0.13%
- Description ([2]; month 3): White
- Content [2, 4]: 99.73% and 99.80%
- Related substance [2, 4]: 0.27% and 0.20%
- Description ([2]; month 6): White
- Content [2, 5]: 99.67% and 99.68%
- Related substance [2, 5]: 0.37% and 0.32%
- Description ([2]; month 9): White
- Content [2, 6]: 99.55% and 99.59%
- Related substance [2, 6]: 0.45% and 0.41%
- Description ([2]; month 12): White
- Content [2, 7]: 99.41% and 99.48%
- Related substance [2, 7]: 0.59% and 0.52%
- Description ([2]; month 24): White
- Content [2, 8]: 98.88% and 99.03%
- Related substance [2, 8]: 1.12% and 0.97%
- Hygroscopic weight gain [3]: 1.56%
- Conclusion (hygroscopicity) [3]: Slight hygroscopicity

Compound: Posaconazole Phosphate Monopotassium Salt Trihydrate [Comparative Example 6]
- Content ([1]; month 0): 99.87%
- Description ([1]; month 0): White
- Related substance ([1]; month 0): 0.13%
- Content ([1]; month 1): 99.76%
- Description ([1]; month 1): White
- Related substance ([1]; month 1): 0.24%
- Content ([1]; month 2): 99.65%
- Description ([1]; month 2): White
- Related substance ([1]; month 2): 0.35%
- Content ([1]; month 3): 99.49%
- Description ([1]; month 3): White
- Related substance ([1]; month 3): 0.51%
- Content ([1]; month 6): 99.38%
- Description ([1]; month 6): White
- Related substance ([1]; month 6): 0.62%
- Content ([2]; month 0): 99.87%
- Description ([2]; month 0): White
- Related substance ([2]; month 0): 0.13%
- Content ([2]; month 3): 99.78%
- Description ([2]; month 3): White
- Related substance ([2]; month 3): 0.22%
- Content ([2]; month 6): 99.70%
- Description ([2]; month 6): White
- Related substance ([2]; month 6): 0.30%
- Content ([2]; month 9): 99.59%
- Description ([2]; month 9): White
- Related substance ([2]; month 9): 0.41%
- Content ([2]; month 12): 99.48%
- Description ([2]; month 12): White
- Related substance ([2]; month 12): 0.52%
- Content ([2]; month 24): 99.00%
- Description ([2]; month 24): White
- Related substance ([2]; month 24): 1.00%
- Hygroscopic weight gain [3]: 1.95%
- Conclusion (hygroscopicity) [3]: Slight hygroscopicity

Compound: Posaconazole Phosphate Disodium Salt [Comparative Example 10]
- Content ([1]; month 0): 99.87%
- Description ([1]; month 0): White
- Related substance ([1]; month 0): 0.13%
- Content ([1]; month 1): 99.72%
- Description ([1]; month 1): White
- Related substance ([1]; month 1): 0.28%
- Content ([1]; month 2): 99.60%
- Description ([1]; month 2): White
- Related substance ([1]; month 2): 0.40%
- Content ([1]; month 3): 99.45%
- Description ([1]; month 3): White
- Related substance ([1]; month 3): 0.55%
- Content ([1]; month 6): 99.34%
- Description ([1]; month 6): White
- Related substance ([1]; month 6): 0.66%
- Content ([2]; month 0): 99.87%
- Description ([2]; month 0): White
- Related substance ([2]; month 0): 0.13%
- Content ([2]; month 3): 99.72%
- Description ([2]; month 3): White
- Related substance ([2]; month 3): 0.28%
- Content ([2]; month 6): 99.62%
- Description ([2]; month 6): White
- Related substance ([2]; month 6): 0.38%
- Content ([2]; month 9): 99.57%
- Description ([2]; month 9): White
- Related substance ([2]; month 9): 0.43%
- Content ([2]; month 12): 99.40%
- Description ([2]; month 12): White
- Related substance ([2]; month 12): 0.60%
- Content ([2]; month 24): 98.84%
- Description ([2]; month 24): White
- Related substance ([2]; month 24): 1.16%
- Hygroscopic weight gain [3]: 13.91%

Compound: CC[C@@H]([C@H](C)OP(=O)(O)O)n1ncn(-c2ccc(N3CCN(c4ccc(OC[C@@H]5CO[C@@](Cn6cncn6)(c6ccc(F)cc6F)C5)cc4)CC3)cc2)c1=O.N=C(N)NCCC[C@H](N)C(=O)O [Comparative Example 5, Posaconazole Phosphate Monoarginine Salt]
- Content ([1]; month 0): 99.87%
- Description ([1]; month 0): White
- Related substance ([1]; month 0): 0.13%
- Content ([1]; month 1): 99.72%
- Description ([1]; month 1): White
- Related substance ([1]; month 1): 0.28%
- Content ([1]; month 2): 99.60%
- Description ([1]; month 2): White
- Related substance ([1]; month 2): 0.40%
- Content ([1]; month 3): 99.50%
- Description ([1]; month 3): White
- Related substance ([1]; month 3): 0.50%
- Content ([1]; month 6): 99.37%
- Description ([1]; month 6): White
- Related substance ([1]; month 6): 0.63%
- Content ([2]; month 0): 99.87%
- Description ([2]; month 0): White
- Related substance ([2]; month 0): 0.13%
- Content ([2]; month 3): 99.79%
- Description ([2]; month 3): White
- Related substance ([2]; month 3): 0.21%
- Content ([2]; month 6): 99.71%
- Description ([2]; month 6): White
- Related substance ([2]; month 6): 0.29%
- Content ([2]; month 9): 99.58%
- Description ([2]; month 9): White
- Related substance ([2]; month 9): 0.42%
- Content ([2]; month 12): 99.49%
- Description ([2]; month 12): White
- Related substance ([2]; month 12): 0.51%
- Content ([2]; month 24): 99.03%
- Description ([2]; month 24): White
- Related substance ([2]; month 24): 0.97%
- Hygroscopic weight gain [3]: 1.02%
- Conclusion (hygroscopicity) [3]: Slight hygroscopicity
